Test results taken from ChEMBL document CHEMBL1135701, “Discovery of a 3-amino-6-phenyl-pyridazine derivative as a new synthetic antineuroinflammatory compound” (J Med Chem, 2002).

Legend:
[1] = biological target: Protein kinase C (PKC); test: Inhibition of Protein kinase C (PKC) activity, Enzyme assay done using gamma-[32P]ATP and synthetic peptide substrates; parameters: species or system Rattus norvegicus
[2] = biological target: MAP kinase p38 (Homo sapiens, UniProt O15264+Q15759+Q16539+P53778); test: Inhibition of p38 Mitogen-activated protein kinase; type: protein assay
[3] = biological target: Ca2+/calmodulin-dependent protein kinase II (CaM kinase II) (Rattus norvegicus, UniProt P11275+P08413+P15791+P11730); test: Inhibition of Calcium/calmodulin-dependent protein kinase type II (CaMKII) activity; type: protein assay
[4] = biological target: Myosin light chain kinase, smooth muscle (Gallus gallus, UniProt P11799); test: Inhibition of Myosin Light Chain kinase (MLCK)
Sequence of Myosin light chain kinase, smooth muscle (P11799 whole entry): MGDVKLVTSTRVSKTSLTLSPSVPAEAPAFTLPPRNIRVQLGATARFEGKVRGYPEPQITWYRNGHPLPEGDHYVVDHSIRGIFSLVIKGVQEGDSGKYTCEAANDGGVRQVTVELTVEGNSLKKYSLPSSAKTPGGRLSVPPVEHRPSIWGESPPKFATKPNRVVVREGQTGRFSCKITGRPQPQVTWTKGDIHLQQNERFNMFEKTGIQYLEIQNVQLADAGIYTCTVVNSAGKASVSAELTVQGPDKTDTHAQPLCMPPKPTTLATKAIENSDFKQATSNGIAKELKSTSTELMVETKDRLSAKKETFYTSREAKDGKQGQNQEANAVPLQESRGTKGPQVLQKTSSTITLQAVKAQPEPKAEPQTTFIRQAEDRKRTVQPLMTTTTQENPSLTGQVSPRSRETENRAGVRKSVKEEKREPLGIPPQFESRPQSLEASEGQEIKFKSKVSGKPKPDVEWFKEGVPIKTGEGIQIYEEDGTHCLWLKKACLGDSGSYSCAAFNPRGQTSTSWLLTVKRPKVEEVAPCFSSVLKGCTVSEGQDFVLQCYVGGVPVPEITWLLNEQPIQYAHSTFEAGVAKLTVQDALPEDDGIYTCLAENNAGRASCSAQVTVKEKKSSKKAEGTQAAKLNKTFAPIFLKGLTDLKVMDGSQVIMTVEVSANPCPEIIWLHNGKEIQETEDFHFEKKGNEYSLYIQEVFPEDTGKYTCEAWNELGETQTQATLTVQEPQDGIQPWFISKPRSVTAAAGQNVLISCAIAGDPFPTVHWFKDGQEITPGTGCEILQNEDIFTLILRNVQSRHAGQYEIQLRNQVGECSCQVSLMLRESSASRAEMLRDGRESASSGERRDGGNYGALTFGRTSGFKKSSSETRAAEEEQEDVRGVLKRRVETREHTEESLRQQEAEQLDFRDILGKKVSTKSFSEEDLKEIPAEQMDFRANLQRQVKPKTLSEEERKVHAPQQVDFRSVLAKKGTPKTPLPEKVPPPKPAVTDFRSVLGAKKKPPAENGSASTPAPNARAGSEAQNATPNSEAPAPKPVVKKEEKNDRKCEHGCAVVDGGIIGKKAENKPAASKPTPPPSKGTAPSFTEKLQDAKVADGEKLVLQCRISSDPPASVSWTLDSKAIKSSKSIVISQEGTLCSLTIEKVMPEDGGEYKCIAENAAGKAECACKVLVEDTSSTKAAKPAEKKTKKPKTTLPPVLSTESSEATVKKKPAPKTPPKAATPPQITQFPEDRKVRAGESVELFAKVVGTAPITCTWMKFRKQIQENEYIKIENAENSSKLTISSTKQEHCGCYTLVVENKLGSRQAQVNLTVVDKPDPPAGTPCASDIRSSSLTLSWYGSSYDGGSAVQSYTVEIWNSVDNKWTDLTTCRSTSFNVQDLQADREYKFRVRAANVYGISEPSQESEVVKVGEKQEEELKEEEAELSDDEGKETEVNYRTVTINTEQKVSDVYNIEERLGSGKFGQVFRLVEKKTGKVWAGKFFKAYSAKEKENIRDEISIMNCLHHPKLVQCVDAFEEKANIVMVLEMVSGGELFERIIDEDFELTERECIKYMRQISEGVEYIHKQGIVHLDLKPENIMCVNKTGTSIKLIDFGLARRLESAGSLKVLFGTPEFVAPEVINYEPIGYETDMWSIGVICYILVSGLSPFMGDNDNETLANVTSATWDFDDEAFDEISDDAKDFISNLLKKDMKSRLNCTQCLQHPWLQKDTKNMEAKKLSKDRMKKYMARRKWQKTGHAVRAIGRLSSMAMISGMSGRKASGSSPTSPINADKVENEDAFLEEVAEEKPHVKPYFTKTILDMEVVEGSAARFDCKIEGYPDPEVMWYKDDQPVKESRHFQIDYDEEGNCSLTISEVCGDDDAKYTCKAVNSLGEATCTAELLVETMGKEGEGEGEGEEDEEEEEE

[5] = biological target: cAMP-dependent protein kinase A (Bos taurus, UniProt P00515+P00517+P05131+P31322); test: Inhibition of Protein kinase A (PKA) activity, Enzyme assay was done using gamma-[32P]ATP and synthetic peptide substrates; type: protein-complex assay

IC50 [1] [µM]	IC50 [2] [µM]	IC50 [3] [µM]	IC50 [4] [µM]	IC50 [5] [µM]	Structure (SMILES)
> 100	> 100	9.7	> 100	> 100	N=c1cc2c(nn1CCCCCCCCCCC(=O)N1CCN(c3ncccn3)CC1)-c1ccccc1CC2
> 100	> 100	8.4		> 100	COc1ccc(S(=O)(=O)N(CCO)c2ccccc2CN(C)C/C=C/c2ccc(Cl)cc2)cc1
